Reference: US11638706B2, “Methods for treating Huntington's disease” (PTC Therapeutics, Inc., priority 2015, dated 2023)

System: Huntingtin protein (HTT)
Assay: Endogenous Huntingtin Protein Assay (MSD electrochemiluminescence ELISA; MW1 or MAB2166 capture, #5656S detection)
Type: cell-based, human
Method: The Endogenous Huntingtin Protein assay used in Example 2 was developed using the Best Pair antibodies identified in Table 2, providing highly sensitive, high-throughput detection assays for polyglutamine-expanded (mHTT) and total human HTT in multiple cell systems. The platform used for the assay is the ELISA-based Meso Scale Discovery (MSD) electrochemiluminescence assay platform.
Meso Scale Discovery (MSD) 96-well or 384-well plates were coated overnight at 4° C. with MW1 (expanded polyglutamine) or MAB2166 monoclonal antibody (for capture) at a concentration of 1 μg/mL in PBS (30 μL per well). Plates were then washed three times with 300 μL wash buffer (0.05% Tween-20 in PBS) and blocked (100 μL blocking buffer; 5% BSA in PBS) for 4-5 hours at room temperature with rotational shaking and then washed three times with wash buffer.
Samples (25 μL) were transferred to the antibody-coated MSD plate and incubated overnight at 4° C. After removal of the lysates, the plate was washed three times with wash buffer, and 25 μL of #5656S (Cell signaling; rabbit monoclonal) secondary antibody (diluted to 0.25 μg/mL in 0.05% Tween-20 in blocking buffer) was added to each well and incubated with shaking for 1 Hour at room temperature. Following incubation with the secondary antibody, the wells were rinsed with wash buffer after which 25 μL of goat anti-rabbit SULFO TAG secondary detection antibody (required aspect of the MSD system) (diluted to 0.25 μg/mL in 0.05% Tween-20 in blocking buffer) was added to each well and incubated with shaking for 1 hour at room temperature. After rinsing three times with wash buffer, 150 μL of read buffer T with surfactant (MSD) were added to each empty well, and the plate was imaged on a SI 6000 imager (MSD) according to manufacturers' instructions provided for 96- or 384-well plates.

Row | SMILES | IC50
1 | CC1(C)CC(Oc2ccc(-c3ccc(-c4ccnc(O)c4)cc3O)nn2)CC(C)(C)N1 [Cpd 176, 4-(3-hydroxy-4-(6-((2,2,6,6-tetramethylpiperidin-4-yl)oxy)pyridazin-3-yl)phenyl)pyridin-2-ol] | ≤ 100 nM
2 | CN(c1ccc(-c2ccc(-n3cc(N)cn3)cc2O)nn1)C1CC(C)(C)NC(C)(C)C1 [Cpd 47, 5-(4-amino-1H-pyrazole-1-yl)-2-(6-(methyl(2,2,6,6-tetramethylpiperidin-4-yl)amino)pyridazin-3-yl)phenol] | 100 to 500 nM
3 | CC1(C)CC(Oc2ccc(-c3cc(F)c(-c4cn[nH]c4)cc3F)nn2)CC(C)(C)N1 [Cpd 431, 3-[2,5-difluoro-4-(1H-pyrazol-4-yl)phenyl]-6-[(2,2,6,6-tetramethylpiperidin-4-yl)oxy]pyridazine] | 100 to 500 nM
4 | CC1(C)CC(Oc2ccc(-c3ccc(-c4cn[nH]c4)cc3F)nn2)CC(C)(C)N1 [Cpd 437, 3-[2-fluoro-4-(1H-pyrazol-4-yl)phenyl]-6-[(2,2,6,6-tetramethylpiperidin-4-yl)oxy]pyridazine] | 1000 to 3000 nM
5 | CC1(C)CC(Oc2ccc(-c3nc(-c4cn[nH]c4)ncc3N)nn2)CC(C)(C)N1 [Cpd 457, 2-(1H-pyrazol-4-yl)-4-{6-[(2,2,6,6-tetramethylpiperidin-4-yl)oxy]pyridazin-3-yl}pyrimidin-5-amine] | 3000 to 9000 nM
6 | CN1CC=C(c2ccc(-c3ccc(-c4cn[nH]c4)cc3O)nn2)CC1 [Cpd 422, 2-[6-(1-methyl-1,2,3,6-tetrahydropyridin-4-yl)pyridazin-3-yl]-5-(1H-pyrazol-4-yl)phenol] | ≤ 100 nM
7 | CN(c1ccc(-c2ccc(-c3cn[nH]c3)c(F)c2F)nn1)C1CC(C)(C)NC(C)(C)C1 [Cpd 430, 6-[2,3-difluoro-4-(1H-pyrazol-4-yl)phenyl]-N-methyl-N-(2,2,6,6-tetramethylpiperidin-4-yl)pyridazin-3-amine] | 100 to 500 nM
8 | CC1(C)CC(Oc2ccc(-c3c(F)cc(-c4cn[nH]c4)cc3F)nn2)CC(C)(C)N1 [Cpd 458, 3-[2,6-difluoro-4-(1H-pyrazol-4-yl)phenyl]-6-[(2,2,6,6-tetramethylpiperidin-4-yl)oxy]pyridazine] | 3000 to 9000 nM
9 | CC1(C)CC(Oc2ccc(-c3ccc(-c4cn[nH]c4)cc3C(F)F)nn2)CC(C)(C)N1 [Cpd 464, 3-[2-(difluoromethyl)-4-(1H-pyrazol-4-yl)phenyl]-6-[(2,2,6,6-tetramethylpiperidin-4-yl)oxy]pyridazine] | 3000 to 9000 nM
10 | CN(c1ccc(-c2ccc(-c3cn[nH]c3)cc2O)nn1)C1CC(C)(C)NC(C)(C)C1 [Cpd 48, 2-(6-(methyl(2,2,6,6-tetramethylpiperidin-4-yl)amino)pyridazin-3-yl)-5-(1H-pyrazol-4-yl)phenol] | ≤ 100 nM
11 | CN(c1ccc(-c2ccc(-c3cn[nH]c3)cc2Cl)nn1)C1CC(C)(C)NC(C)(C)C1 [Cpd 456, 6-[2-chloro-4-(1H-pyrazol-4-yl)phenyl]-N-methyl-N-(2,2,6,6-tetramethylpiperidin-4-yl)pyridazin-3-amine] | 3000 to 9000 nM
12 | CN(c1ccc(-c2ccc(-n3ccnc3)cc2O)nn1)C1CC(C)(C)NC(C)(C)C1 [Cpd 46, 5-(1H-imidazol-1-yl)-2-(6-(methyl(2,2,6,6-tetramethylpiperidin-4-yl)amino)pyridazin-3-yl)phenol] | ≤ 100 nM
13 | CC1(C)CC(Oc2ccc(-c3ccc(-c4cn[nH]c4)cc3O)nn2)CC(C)(C)N1 [Cpd 64, 5-(1H-pyrazol-4-yl)-2-(6-((2,2,6,6-tetramethylpiperidin-4-yl)oxy)pyridazin-3-yl)phenol] | ≤ 100 nM
14 | Oc1cc(-c2cn[nH]c2)ccc1-c1ccc(N2CC3(CCNCC3)C2)nn1 [Cpd 439, 2-[6-(2,7-diazaspiro[3.5]non-2-yl)pyridazin-3-yl]-5-(1H-pyrazol-4-yl)phenol] | 1000 to 3000 nM
15 | CN(c1nnc(-c2cc(F)c(-c3cn[nH]c3)cc2F)s1)C1CC(C)(C)NC(C)(C)C1 [Cpd 350] | ≤ 100 nM
16 | CN(c1ccc(-c2cc(F)c(-c3cn[nH]c3)cc2F)nn1)C1CC(C)(C)NC(C)(C)C1 [Cpd 428, 6-[2,5-difluoro-4-(1H-pyrazol-4-yl)phenyl]-N-methyl-N-(2,2,6,6-tetramethylpiperidin-4-yl)pyridazin-3-amine] | 100 to 500 nM
17 | CN(c1nnc(-c2c(F)cc(-c3cn[nH]c3)cc2F)s1)C1CC(C)(C)NC(C)(C)C1 [Cpd 352] | 100 to 500 nM
18 | CN(c1nnc(-c2ccc(-c3cn[nH]c3)c(F)c2F)s1)C1CC(C)(C)NC(C)(C)C1 [Cpd 348] | ≤ 100 nM

Row | SMILES | IC50
19 | CN(c1ccc(-c2ccc(-c3cn[nH]c3)nc2O)nn1)C1CC(C)(C)NC(C)(C)C1 [Cpd 460, 3-{6-[methyl(2,2,6,6-tetramethylpiperidin-4-yl)amino]pyridazin-3-yl}-6-(1H-pyrazol-4-yl)pyridin-2-ol] | 3000 to 9000 nM
20 | COc1nc(-c2cn[nH]c2)ccc1-c1ccc(N(C)C2CC(C)(C)NC(C)(C)C2)nn1 [Cpd 434, 6-[2-methoxy-6-(1H-pyrazol-4-yl)pyridin-3-yl]-N-methyl-N-(2,2,6,6-tetramethylpiperidin-4-yl)pyridazin-3-amine] | 500 to 1000 nM
21 | CN(c1ccc(-c2cc3cccnc3cc2O)nn1)C1CC(C)(C)NC(C)(C)C1 [Cpd 207, 6-(6-(methyl(2,2,6,6-tetramethylpiperidin-4-yl)amino)pyridazin-3-yl)quinolin-7-ol] | 100 to 500 nM
22 | COc1cc(-n2cc([N+](=O)[O-])cn2)ccc1-c1ccc(OC2CC(C)(C)NC(C)(C)C2)nn1 [Cpd 454, 3-[2-methoxy-4-(4-nitro-1H-pyrazol-1-yl)phenyl]-6-[(2,2,6,6-tetramethylpiperidin-4-yl)oxy]pyridazine] | 3000 to 9000 nM
23 | Cc1[nH]ncc1-c1ccc(-c2ccc(N(C)C3CC(C)(C)NC(C)(C)C3)nn2)c(O)c1 [Cpd 416, 5-(5-methyl-1H-pyrazol-4-yl)-2-{6-[methyl(2,2,6,6-tetramethylpiperidin-4-yl)amino]pyridazin-3-yl}phenol] | ≤ 100 nM
24 | CN(c1ccc(-c2ccc(-c3cn[nH]c3)cc2F)nn1)C1CC(C)(C)NC(C)(C)C1 [Cpd 452, 6-[2-fluoro-4-(1H-pyrazol-4-yl)phenyl]-N-methyl-N-(2,2,6,6-tetramethylpiperidin-4-yl)pyridazin-3-amine] | 3000 to 9000 nM
25 | CN(c1ccc(-c2ccc(-c3cnn(C)c3)cc2O)nn1)C1CC(C)(C)NC(C)(C)C1 [Cpd 51, 2-(6-(methyl(2,2,6,6-tetramethylpiperidin-4-yl)amino)pyridazin-3-yl)-5-(1-methyl-1H-pyrazol-4-yl)phenol] | ≤ 100 nM
26 | Oc1cc(-c2cn[nH]c2)ccc1-c1ccc(N2CC3(CCNC3)C2)nn1 [Cpd 459, 2-[6-(2,6-diazaspiro[3.4]oct-2-yl)pyridazin-3-yl]-5-(1H-pyrazol-4-yl)phenol] | 3000 to 9000 nM
27 | CC1(C)CC(Oc2ccc(-c3ccc(-c4cn[nH]c4)nc3O)nn2)CC(C)(C)N1 [Cpd 461, 6-(1H-pyrazol-4-yl)-3-{6-[(2,2,6,6-tetramethylpiperidin-4-yl)oxy]pyridazin-3-yl}pyridin-2-ol] | 3000 to 9000 nM
28 | CC1(C)CC(Oc2ccc(-c3ccc(-n4cccn4)cc3O)nn2)CC(C)(C)N1 [Cpd 63, 5-1H-pyrazol-1-yl-2-(6-(2,2,6,6-tetramethylpiperidin-4-yl-oxy)-pyridazin-3-yl)phenol] | ≤ 100 nM
29 | Oc1cc(-c2cn[nH]c2)ccc1-c1ccc(C2=CC3CCC(C2)N3)nn1 (stereo not drawn) [Cpd 429, 2-[6-(8-azabicyclo[3.2.1]oct-2-en-3-yl)pyridazin-3-yl]-5-(1H-pyrazol-4-yl)phenol] | 100 to 500 nM
30 | CC1(C)CC(Oc2ccc(-c3ccc(-n4cc([N+](=O)[O-])cn4)cc3O)nn2)CC(C)(C)N1 [Cpd 423, 5-(4-nitro-1H-pyrazol-1-yl)-2-{6-[(2,2,6,6-tetramethylpiperidin-4-yl)oxy]pyridazin-3-yl}phenol] | ≤ 100 nM
31 | CN(c1ccc(-c2cc3cnccc3cc2O)nn1)C1CC(C)(C)NC(C)(C)C1 [Cpd 212, 7-(6-(methyl(2,2,6,6-tetramethylpiperidin-4-yl)amino)pyridazin-3-yl)isoquinolin-6-ol] | ≤ 100 nM
32 | CN(c1nnc(Oc2cccc(-c3cn[nH]c3)c2)s1)C1CC(C)(C)NC(C)(C)C1 [Cpd 462, N,2,2,6,6-pentamethyl-N-{5-[3-(1H-pyrazol-4-yl)phenoxy]-1,3,4-thiadiazol-2-yl}piperidin-4-amine] | 3000 to 9000 nM
33 | CN(c1ccc(-c2ccc(-c3cn[nH]c3)cc2O)nn1)C1CCNCC1 [Cpd 426, 2-{6-[methyl(piperidin-4-yl)amino]pyridazin-3-yl}-5-(1H-pyrazol-4-yl)phenol] | 100 to 500 nM
34 | CC1(C)CC(Oc2ccc(-c3ccc(-n4cc(N)cn4)cc3O)nn2)CC(C)(C)N1 [Cpd 421, 5-(4-amino-1H-pyrazol-1-yl)-2-{6-[(2,2,6,6-tetramethylpiperidin-4-yl)oxy]pyridazin-3-yl}phenol] | ≤ 100 nM
35 | Oc1cc(-c2cn[nH]c2)ccc1-c1ccc(NC2CCNCC2)nn1 [Cpd 427, 2-[6-(piperidin-4-ylamino)pyridazin-3-yl]-5-(1H-pyrazol-4-yl)phenol] | 100 to 500 nM
36 | CN(c1ccc(-c2cc3ccncc3cc2O)nn1)C1CC(C)(C)NC(C)(C)C1 [Cpd 218, 6-(6-(methyl(2,2,6,6-tetramethylpiperidin-4-yl)amino)pyridazin-3-yl)isoquinolin-7-ol] | ≤ 100 nM
